Data from patent publication US6777426B2, “Imidazole and imidazoline derivatives and uses thereof” (Synaptic Pharmaceutical Corporation, priority 1997, dated 2004).
Counter-ions that a name gives are not always drawn. Like-named read-outs stand apart in the source and are kept apart here.

Experiments:
[1] = target: T1, human α2a adrenergic receptor (Homo sapiens, UniProt P08913); experiment: Equilibrium competition binding, [3H]rauwolscine, cloned human α2a; conditions: cloned human α2a, membrane preparations, [3H]rauwolscine; read-out: α2a pKi (converted)
T1 construct: expressed in transfected cells; host or cells: LM(tk−) cells (L-α2A, ATCC CRL-11180), vector pCEXV-3
T1 sequence (P08913 1-465): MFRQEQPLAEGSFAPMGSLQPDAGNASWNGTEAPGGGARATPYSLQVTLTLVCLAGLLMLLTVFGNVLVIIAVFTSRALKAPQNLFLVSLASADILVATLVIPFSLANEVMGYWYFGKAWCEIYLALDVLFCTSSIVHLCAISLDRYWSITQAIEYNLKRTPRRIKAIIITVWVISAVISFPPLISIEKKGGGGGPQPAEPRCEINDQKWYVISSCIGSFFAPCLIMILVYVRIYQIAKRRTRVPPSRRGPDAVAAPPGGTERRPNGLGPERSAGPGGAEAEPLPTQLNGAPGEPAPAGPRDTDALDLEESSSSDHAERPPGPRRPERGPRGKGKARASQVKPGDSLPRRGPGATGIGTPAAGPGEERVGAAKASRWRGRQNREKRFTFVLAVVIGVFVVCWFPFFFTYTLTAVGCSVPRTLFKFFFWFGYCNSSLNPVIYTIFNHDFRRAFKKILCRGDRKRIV
Procedure: (§1) Binding and functional assays were performed using stably transfected cells expressing human α adrenergic receptors. Equilibrium competition binding assays were performed with membrane preparations from cultured LM(tk−) cells stably transfected with the cloned human adrenoceptor subtypes except for a21, which was expressed In Y-1 cells, using [^3H]prazosin for α1 receptors and [^3H]rauwolscine for […].
(§2) These cell lines were prepared by transfecting cloned cDNA or cloned genomic DNA or constructs containing both genomic DNA and cDNA encoding the human a adrenergic receptors as described below.
The insert housing this coding region was a 2.5 kb Kpnl/HindIII human placenta genomic fragment which was end-blunted by either T4 polymerase or Klenow fragment of DNA polymerase. Stable cell lines were obtained by to-transfection with the plasmid pGCcos3neo (plasmid containing the α2a receptor gene) and the plasmid pGCcos3neo (plasmid containing the aminoglycoside transferase gene) into LM(tk−), CHO, and NIH3T3 cells, using calcium phosphate technique. The cells were grown in a controlled environment (37° C., 5% CO2) as monolayers in Dulbecco's modified Eagle's Medium (GIBCO, Grand Island, N.Y.) containing 25 mM glucose and supplemented with 10% bovine calf serum, 100 units/mL penicillin g, and […] streptomycin sulfate.
(§3) The stable cell lines described above were scraped from culture flasks into 5 mL of 5 mM Tris-HCl, […], pH 7.5, and lysed by sonication. The cell lysates were centrifuged at 1,000 rpm for 5 min. at 4° C., and the supernatant was centrifuged at 30,000×g for 20 min. at 4° C. The pellet was suspended in 50 mM Tris-HCl, 1 mM MgCl2, and 0.1% ascorbic acid at pH 7.5. Binding of the α2 antagonist [^3H]rauwolscine (0.5 nM) or the α1 antagonist [^3H]prazosin (0.5 nM) to membrane preparations of LM(tk−) cells was done in a final volume of 0.25 mL and incubated at 37° C. for 20 min. Nonspecific binding was determined in the presence of […]. The reaction was stopped by filtration through GF/B filters using a cell harvester.

[2] = target: T2, human α2b adrenergic receptor (Homo sapiens, UniProt P18089); experiment: Equilibrium competition binding, [3H]rauwolscine, cloned human α2b; conditions: cloned human α2b, membrane preparations, [3H]rauwolscine; read-out: α2b pKi (converted)
T2 construct: expressed in transfected cells; host or cells: stably transfected cells, vector pcEXV-3; deposited line L-NGC-α2B (ATCC CRL-10275)
T2 sequence (P18089 1-450): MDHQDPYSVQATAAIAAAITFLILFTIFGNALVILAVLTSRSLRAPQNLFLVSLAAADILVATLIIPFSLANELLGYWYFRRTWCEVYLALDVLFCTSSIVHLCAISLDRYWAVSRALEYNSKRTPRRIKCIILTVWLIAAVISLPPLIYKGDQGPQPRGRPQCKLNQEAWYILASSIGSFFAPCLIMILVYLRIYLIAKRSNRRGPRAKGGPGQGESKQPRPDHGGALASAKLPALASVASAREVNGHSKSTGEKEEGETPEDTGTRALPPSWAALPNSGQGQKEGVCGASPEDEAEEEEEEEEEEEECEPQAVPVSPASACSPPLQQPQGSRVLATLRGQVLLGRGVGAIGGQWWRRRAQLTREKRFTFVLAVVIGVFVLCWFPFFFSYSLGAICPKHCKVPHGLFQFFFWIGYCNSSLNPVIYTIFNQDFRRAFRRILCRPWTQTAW
Procedure: as §1, §2
Stable cell lines were selected as described above.
as §3

[3] = target: T3, human α2c adrenergic receptor (Homo sapiens, UniProt P18825); experiment: Equilibrium competition binding, [3H]rauwolscine, cloned human α2c; conditions: cloned human α2c, membrane preparations, [3H]rauwolscine; read-out: α2c pKi (converted)
T3 construct: The entire coding region of α2c (1383 bp), including 2 bp of 5′ UT and 400 bp of 3′ UT; expressed in transfected cells; host or cells: LM(tk−) cells (L-α2c, ATCC CRL-11181), vector pCEXV-3
T3 sequence (P18825 1-462): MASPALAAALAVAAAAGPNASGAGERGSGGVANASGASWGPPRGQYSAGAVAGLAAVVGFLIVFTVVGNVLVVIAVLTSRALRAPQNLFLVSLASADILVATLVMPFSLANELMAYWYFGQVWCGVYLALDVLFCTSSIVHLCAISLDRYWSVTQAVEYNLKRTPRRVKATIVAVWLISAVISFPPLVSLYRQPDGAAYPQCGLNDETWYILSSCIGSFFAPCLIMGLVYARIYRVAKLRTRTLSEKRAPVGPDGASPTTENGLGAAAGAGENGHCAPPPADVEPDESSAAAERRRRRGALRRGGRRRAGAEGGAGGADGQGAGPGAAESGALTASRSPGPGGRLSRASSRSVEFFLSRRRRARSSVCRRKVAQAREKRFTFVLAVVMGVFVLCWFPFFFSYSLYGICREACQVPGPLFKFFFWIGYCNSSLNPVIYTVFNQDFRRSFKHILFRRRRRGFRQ
Procedure: as §1, §2
The insert housing this coding region was a 1.8 kb Ncol/EcoR1 human spleen genomic fragment which was end-blunted by either T4 polymerase or Klenow fragment of DNA polymerase. Stable cell lines were selected as described above.
as §3

[4] = target: T1, human α2a adrenergic receptor; experiment: α2 agonist activity: inhibition of forskolin-stimulated cAMP synthesis, α2a cells; format: cell-based
Procedure: as §1, §2
(§4) The agonist activity (expressed as pEC50) was measured as a function of the ability to inhibit the forskolin-stimulated synthesis of cyclic adenosine monophosphate (cAMP). The stably transfected cells were incubated in Ham's F10 with 5 mM theophylline, 10 mM HEPES, 17 mM pargyline, and/or appropriate concentrations of forskolin for 20 min. at 37° C. in 5% CO2. The tested compounds were then added to a final concentration of 0.001 nM to 1 mM and incubated for an additional 15 min. at 37° C. in 5% CO2. The medium was aspirated and the reaction was stopped by the addition of 100 mM HCl. […] The plates were stored at 4° C. for 15 min. and assayed to determine the linear concentration of cAMP. The appropriate dilution was interpolated from the standard curve of cold cAMP. The assessment of cAMP formation was determined by radioimmunoassay (cAMP radioimmunoassay kit; Advanced magnetics, Cambridge, Mass.). Radioactivity was quantified using a Packard COBRA Auto Gamma counter equipped with data reduction software.

[5] = target: T2, human α2b adrenergic receptor; experiment: α2 agonist activity: inhibition of forskolin-stimulated cAMP synthesis, α2b cells; format: cell-based; conditions: inhibition of forskolin-stimulated cAMP, cloned human α2b; for EC50: read-out: α2b pEC50 (converted)
Procedure: as §1, §2, §4

[6] = target: T3, human α2c adrenergic receptor; experiment: α2 agonist activity: inhibition of forskolin-stimulated cAMP synthesis, α2c cells; format: cell-based; conditions: inhibition of forskolin-stimulated cAMP, cloned human α2c; for EC50: read-out: α2c pEC50 (converted)
Procedure: as §1, §2, §4

In the case of `c1cc2c(cc1NC1=NCCN1)CCC2` [Example 1, 2-(5-Indanylamino)-2-imidazoline], the Ki [1] is reported as 1.15 nM, the Ki [2] is reported as 2.88 nM and the Ki [3] is reported as 13.8 nM. The EC50 [4] was 14.8 nM, the “α2a IA (Intrinsic Activity)” value ([4]; inhibition of forskolin-stimulated cAMP, cloned human α2a) was “(0.48)” and the “α2b IA (Intrinsic Activity)” value [5] was “(0.53)”. For the same compound, the EC50 [5] was 36.3 nM, the “α2c IA (Intrinsic Activity)” value [6] was “(1.00)” and the EC50 [6] was 11.5 nM. The melting point was 41 to 42 °C.

For `CC(c1c[nH]cn1)c1cc(-c2ccccc2)nc2ccccc12` (stereo not shown) [Example 36, 4-[1-(1H-Imidazol-4-yl)-ethyl]-2-phenyl-quinoline dihydrochloride], the Ki [1] was 2.69 nM, the Ki [2] was 40.7 nM and the Ki [3] was 16.2 nM. The EC50 ([4]; inhibition of forskolin-stimulated cAMP, cloned human α2a, read-out: α2a pEC50 (converted)) was 10000 nM, the EC50 [5] was 2820 nM and the EC50 [6] was 7.24 nM.
